For 21 molecules, Eff. %, LogP and chromatographic logP results are on record in patent US10004232B2 (priority 2011, dated 2018).

The test system of one data set is Phytophthora infestans. Format: in vivo. Conditions: young tomato plants, protective spray, active ingredient concentration 100 ppm, evaluation 7 days after inoculation.
Data set [1] in a line: logP determination by HPLC on reversed-phase columns (C 18), EEC Directive 79/831 Annex V.A8. Conditions: for chromatographic logP: reversed-phase C18 HPLC column. Format: physicochemical. The source says:
Calibration takes place using unbranched alkan-2-ones (having 3 to 16 carbon atoms) whose log P values are known (log P values determined on the basis of the retention times, by linear interpolation between two successive alkanones).

The test system of a further data set is Plasmopara viticola. Put plainly: Plasmopara test (grapevine) / protective. Particulars: young grapevine plants, protective spray, active ingredient concentration 10 ppm, evaluation 6 days after inoculation. Format: in vivo. The protocol: Plasmopara Test (Grapevine)/Protective
Solvent: 24.5 parts by weight of acetone
• 24.5 parts by weight of dimethylacetamide Emulsifier: 1 part by weight of alkylaryl polyglycol ether
An appropriate preparation of active ingredient is prepared by mixing 1 part by weight of active ingredient with the specified amounts of solvent and emulsifier, and diluting the concentrate with water to the desired concentration.
To test for protective activity, young plants are sprayed with the preparation of active ingredient at the specified application rate. After the spray coating has dried on, the plants are inoculated with an aqueous spore suspension of Plasmopara viticola and then spend 1 day in an incubation cabinet at about 20° C. and 100% relative atmospheric humidity. The plants are subsequently placed for 4 days in a greenhouse at about 21° C. and about 90% atmospheric humidity. The plants are then moistened and placed in an incubation cabin for 1 day.
Evaluation takes place 6 days after inoculation. Here, 0% denotes an efficacy which corresponds to that of the control, whereas an efficacy of 100% means that no infestation is observed.

The mark [2] stands for this setting: [a] LC-MS in the acidic range, pH 2.7, 0.1% aqueous formic acid and acetonitrile.
Setting [3] is: [b] LC-MS in the neutral range, pH 7.8, 0.001 molar aqueous ammonium hydrogencarbonate and acetonitrile.

The LogP is the decadic logarithm of the partition coefficient of the neutral form, usually between octanol and water. Read a high LogP as higher lipophilicity. A word on the chromatographic logP: it is a lipophilicity value derived from retention on a column. Higher therefore signals a more lipophilic compound.

As to `C#CCOc1cc(F)c(C2CC(c3csc(C4CCN(C(=O)Cn5nc(C(F)F)cc5C(F)F)CC4)n3)=NO2)c(F)c1` (racemic) [Example I-3], the Eff. % was 98% in the data set on Phytophthora infestans and 100% with Plasmopara viticola. The LogP in data set [1] (setting [2]) is 3.3; in data set [1] (setting [3]), 3.26.
As to `O=C(Cn1nc(C(F)F)cc1C(F)F)N1CCC(c2nc(C3=NOC(c4c(OC/C=C\Cl)ccc(F)c4F)C3)cs2)CC1` (racemic) [Example I-6], the LogP in data set [1] (setting [2]) came out at 3.79; in data set [1] (setting [3]) it was 3.71.
Take `C=C(Cl)COc1ccc(F)c(F)c1C1CC(c2csc(C3CCN(C(=O)Cn4nc(C(F)F)cc4C(F)F)CC3)n2)=NO1` (racemic) [Example I-7]: the LogP is 3.68 in data set [1] (setting [2]) and 3.69 in data set [1] (setting [3]). Besides, the Eff. % in the data set on Plasmopara viticola was 100%.
For `C#CCOc1ccc(F)c(F)c1C1CC(c2csc(C3CCN(C(=O)Cn4nc(C(F)F)cc4C(F)F)CC3)n2)=NO1` (racemic) [Example I-8], the figures for the LogP in data set [1] (setting [2]) and in data set [1] (setting [3]) were 3.3 and 3.27, respectively. Also, in the data set on Plasmopara viticola, the Eff. % was determined as 100%.
With `O=C(Oc1cc(F)c(C2CC(c3csc(C4CCN(C(=O)Cn5nc(C(F)F)cc5C(F)F)CC4)n3)=NO2)c(F)c1)C1CC1` (racemic) [Example I-9], in data set [1] (setting [2]), the LogP was 3.53^[a].
In the case of `C#CCOc1c(F)cc(F)cc1C1CC(c2csc(C3CCN(C(=O)Cn4nc(C(F)F)cc4C(F)F)CC3)n2)=NO1` (racemic) [Example I-10], the LogP stood at 3.58 in data set [1] (setting [2]) and 3.51 in data set [1] (setting [3]).
Regarding `C=CCOc1cc(F)c(C2CC(c3csc(C4CCN(C(=O)Cn5nc(C(F)F)cc5C(F)F)CC4)n3)=NO2)c(F)c1` (racemic) [Example I-11], in data set [1] (setting [2]), the LogP is 3.7^[a].
Regarding `C#CCOc1c(F)ccc(F)c1C1CC(c2csc(C3CCN(C(=O)Cn4nc(C(F)F)cc4C(F)F)CC3)n2)=NO1` (racemic) [Example I-12], the log partition coefficient (LogP) in data set [1] (setting [2]) is 3.31; in data set [1] (setting [3]), 3.3.
Take `C#CCOc1cc(F)cc(F)c1C1CC(c2csc(C3CCN(C(=O)Cn4nc(C(F)F)cc4C(F)F)CC3)n2)=NO1` (racemic) [Example I-13]: the LogP in data set [1] (setting [2]) is 3.32^[a]. In addition, in the data set with Plasmopara viticola, the Eff. % was determined as 100%.
As for `O=Cc1cc(F)c(C2CC(c3csc(C4CCN(C(=O)Cn5nc(C(F)F)cc5C(F)F)CC4)n3)=NO2)c(F)c1` (racemic) [Example I-14], the LogP came to 2.93 in data set [1] (setting [2]) and 2.87 in data set [1] (setting [3]).
In the case of `O=C(Cn1nc(C(F)F)cc1C(F)F)N1CCC(c2nc(C3=NOC(c4c(F)cc(F)cc4OCC4CC4)C3)cs2)CC1` (racemic) [Example I-15], the log partition coefficient (LogP) was found to be 3.81 in data set [1] (setting [2]) and 3.76 in data set [1] (setting [3]).
The corresponding values for `O=C(Oc1cc(F)cc(F)c1C1CC(c2csc(C3CCN(C(=O)Cn4nc(C(F)F)cc4C(F)F)CC3)n2)=NO1)C1CC1` (racemic) [Example I-16] are 3.5 and 3.42.
In the case of `C=CCOc1ccc(F)c(F)c1C1CC(c2csc(C3CCN(C(=O)Cn4nc(C(F)F)cc4C(F)F)CC3)n2)=NO1` (racemic) [Example I-17], the LogP stood at 3.53 in data set [1] (setting [2]) and 3.56 in data set [1] (setting [3]). Further, the Eff. % in the data set on Plasmopara viticola stood at 100%.
As for `C=CCOc1cc(Cl)cc(Cl)c1C1CC(c2csc(C3CCN(C(=O)Cn4nc(C(F)F)cc4C(F)F)CC3)n2)=NO1` (racemic) [Example I-18], the Eff. % is recorded as 95% with Phytophthora infestans and 96% with Plasmopara viticola. The LogP in data set [1] (setting [2]) is 4.29; in data set [1] (setting [3]) it was 4.2.
On to `C=C(Cl)COc1cc(F)cc(F)c1C1CC(c2csc(C3CCN(C(=O)Cn4nc(C(F)F)cc4C(F)F)CC3)n2)=NO1` (racemic) [Example I-19], for which the LogP is on record as 3.79 in data set [1] (setting [2]) and 3.7 in data set [1] (setting [3]). In the data set with Plasmopara viticola, the Eff. % is 100%.
Taken in the same sequence, the figures for `C=CCOc1cc(F)cc(F)c1C1CC(c2csc(C3CCN(C(=O)Cn4nc(C(F)F)cc4C(F)F)CC3)n2)=NO1` (racemic) [Example I-20] were 3.67, 3.58 and 100%.
For the molecule `C#CCOc1cc(Cl)cc(Cl)c1C1CC(c2csc(C3CCN(C(=O)Cn4nc(C(F)F)cc4C(F)F)CC3)n2)=NO1` (racemic) [Example I-21], the figures for the Eff. % in the data set on Phytophthora infestans and in the data set with Plasmopara viticola were 95% and 100%, respectively. The LogP in data set [1] (setting [2]) was 3.94; in data set [1] (setting [3]), 3.85.
Molecule `C#CCOc1cc(C)c(C)cc1C1(C)CC(c2csc(C3CCN(C(=O)Cn4nc(C(F)F)cc4C(F)F)CC3)n2)=NO1` (stereo not drawn) [Example I-1, 2-[3,5-Bis(difluoromethyl)-1H-pyrazol-1-yl]-1-[4-(4-{5-[4,5-dimethyl-2-(prop-2-yn-1-yloxy)phenyl]-5-methyl-4,5-dihydro-1,2-oxazol-3-yl}-1,3-thiazol-2-yl)piperidin-1-yl]ethanone] returned an Eff. % in the data set on Phytophthora infestans of 98%. The chromatographic logP in data set [1] (setting [2]) was found to be 4.1; in data set [1] (setting [3]), 4.04.
In the case of `C#CCOc1ccc(F)c(C2CC(c3csc(C4CCN(C(=O)Cn5nc(C(F)F)cc5C(F)F)CC4)n3)=NO2)c1F` (stereo not drawn) [Example I-2, 2-[3,5-Bis(difluoromethyl)-1H-pyrazol-1-yl]-1-[4-(4-{5-[2,6-difluoro-3-(prop-2-yn-1-yloxy)phenyl]-4,5-dihydro-1,2-oxazol-3-yl}-1,3-thiazol-2-yl)piperidin-1-yl]ethanone], the figures for the Eff. % with Phytophthora infestans and in the data set on Plasmopara viticola were 94% and 100%, respectively. Moreover, the chromatographic logP stood at 3.26 in data set [1] (setting [2]) and 3.18 in data set [1] (setting [3]).
The corresponding values for `C=CCOc1ccc(F)c(C2CC(c3csc(C4CCN(C(=O)Cn5nc(C(F)F)cc5C(F)F)CC4)n3)=NO2)c1F` (stereo not drawn) [Example I-4, 1-[4-(4-{5-[3-(Allyloxy)-2,6-difluorophenyl]-4,5-dihydro-1,2-oxazol-3-yl}-1,3-thiazol-2-yl)piperidin-1-yl]-2-[3,5-bis(difluoromethyl)-1H-pyrazol-1-yl]ethanone] are 95%, 100%, 3.59 and 3.51.
Turning to `CS(=O)(=O)Nc1cc(F)c(C2CC(c3csc(C4CCN(C(=O)Cn5nc(C(F)F)cc5C(F)F)CC4)n3)=NO2)c(F)c1` (stereo not drawn) [Example I-5, N-(4-{3-[2-(1-{[3,5-Bis(difluoromethyl)-1H-pyrazol-1-yl]acetyl}piperidin-4-yl)-1,3-thiazol-4-yl]-4,5-dihydro-1,2-oxazol-5-yl}-3,5-difluorophenyl)methanesulphonamide], the Eff. % amounted to 95% in the data set with Phytophthora infestans and 96% with Plasmopara viticola. The chromatographic logP in data set [1] (setting [2]) was determined as 2.63.
